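These data come from cells grown in 96-well plates and exposed to compound for 48 hours at five concentrations. The concentration for 50% growth inhibition is given as GI50.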 The source made the active and inactive calls. Rule as the data show it: active = GI50 up to about 1.1 µM and inactive = higher.
Legend:
Assay in all cases: NCI anticancer screen, dose series, 48 h
CCRF-CEM = tested on: CCRF-CEM
UACC-62 = tested on: UACC-62
HT-29 = tested on: HT-29
LOX IMVI = tested on: LOX IMVI
A498 = tested on: A498
MCF7 = tested on: MCF7
SK-MEL-5 = tested on: SK-MEL-5
OVCAR-3 = tested on: OVCAR-3
KM12 = tested on: KM12
NCI-H226 = tested on: NCI-H226
SF-539 = tested on: SF-539
SW-620 = tested on: SW-620
NCI-H23 = tested on: NCI-H23
SK-MEL-2 = tested on: SK-MEL-2
OVCAR-5 = tested on: OVCAR-5
COLO 205 = tested on: COLO 205
UO-31 = tested on: UO-31
T47D = tested on: T47D
NCI/ADR-RES = tested on: NCI/ADR-RES
HOP-62 = tested on: HOP-62

Measured: GI50

COc1ccc(NC2=NCCO2)c2c1CCCC2
inactive: CCRF-CEM 25.5 µM | UACC-62 24.4 µM | HT-29 46.8 µM | LOX IMVI 29.1 µM | A498 61.1 µM | MCF7 27.4 µM | SK-MEL-5 17.5 µM | OVCAR-3 29.1 µM | KM12 42.6 µM | NCI-H226 21.9 µM | SF-539 33.2 µM | SW-620 47.4 µM | NCI-H23 25.5 µM | SK-MEL-2 18.8 µM | OVCAR-5 64.9 µM | COLO 205 28.2 µM | UO-31 53.5 µM | T47D 35.2 µM | NCI/ADR-RES 27.6 µM

O=C(NCCCN(CCCCN(CCCNC(=O)C(F)(F)F)Cc1ccc2ccccc2c1)Cc1ccc2ccccc2c1)C(F)(F)F
inactive: CCRF-CEM > 78.2 µM | UACC-62 2.31 µM | HT-29 1.44 µM | LOX IMVI 4.36 µM | A498 > 100 µM | MCF7 1.95 µM | SK-MEL-5 1.75 µM | OVCAR-3 > 100 µM | HOP-62 > 100 µM | KM12 5.83 µM | NCI-H226 > 100 µM | SF-539 4.62 µM | SW-620 > 100 µM | SK-MEL-2 > 20 µM | OVCAR-5 > 100 µM | COLO 205 1.95 µM | UO-31 2.33 µM | T47D 5.05 µM | NCI/ADR-RES 73.5 µM

COc1ccc(OC)c([N+](=O)[O-])c1-c1nc2sc(C)c(C)n2c1/C=N/N=C(N)N
inactive: CCRF-CEM 50.7 µM | UACC-62 45.7 µM | HT-29 43.4 µM | LOX IMVI 49 µM | A498 > 100 µM | MCF7 24 µM | SK-MEL-5 34.5 µM | OVCAR-3 > 100 µM | HOP-62 > 100 µM | KM12 20.9 µM | NCI-H226 > 100 µM | SF-539 > 100 µM | SW-620 66.4 µM | NCI-H23 > 100 µM | SK-MEL-2 21.3 µM | OVCAR-5 > 100 µM | COLO 205 29.9 µM | UO-31 > 100 µM | T47D 23.4 µM | NCI/ADR-RES > 100 µM

COc1ccc(OC)c(-c2cc(C(=O)O)c3cc4ccccc4cc3n2)c1
inactive: UACC-62 > 100 µM | HT-29 > 100 µM | LOX IMVI > 100 µM | A498 > 100 µM | MCF7 > 100 µM | SK-MEL-5 > 100 µM | OVCAR-3 > 100 µM | HOP-62 > 100 µM | KM12 > 100 µM | NCI-H226 37.3 µM | SF-539 > 100 µM | SW-620 > 100 µM | NCI-H23 > 100 µM | SK-MEL-2 > 100 µM | OVCAR-5 > 100 µM | COLO 205 > 100 µM | T47D > 100 µM | NCI/ADR-RES > 100 µM

C/C=C1\CC(C(=O)OCC)CCCCCCCCCCC1=O (stereo not drawn)
inactive: CCRF-CEM 37 µM | UACC-62 91.2 µM | HT-29 46.8 µM | LOX IMVI 28.8 µM | A498 > 100 µM | MCF7 32.8 µM | SK-MEL-5 29.2 µM | HOP-62 > 100 µM | KM12 41.3 µM | NCI-H226 25.1 µM | SF-539 > 100 µM | SW-620 38.5 µM | NCI-H23 37.6 µM | SK-MEL-2 36.1 µM | OVCAR-5 > 100 µM | COLO 205 > 100 µM | UO-31 37.3 µM | T47D 26.7 µM | NCI/ADR-RES 34.7 µM

C[C@]12CCC(=O)O[C@H]1CCCCO2
inactive: CCRF-CEM > 100 µM | UACC-62 > 100 µM | HT-29 > 100 µM | LOX IMVI > 100 µM | A498 > 100 µM | MCF7 > 100 µM | SK-MEL-5 > 100 µM | OVCAR-3 > 100 µM | HOP-62 > 100 µM | KM12 > 100 µM | NCI-H226 > 100 µM | SF-539 > 100 µM | SW-620 > 100 µM | SK-MEL-2 > 100 µM | OVCAR-5 > 100 µM | COLO 205 > 100 µM | T47D > 100 µM | NCI/ADR-RES > 100 µM

C[C@H]1CC[C@H]([C@@H](C)[C@H]2[C@@H](O)C[C@H]3[C@@H]4CC[C@H]5C[C@@H](O)CC[C@]5(C)[C@H]4CC[C@]23C)NC1
inactive: CCRF-CEM 5.53 µM | UACC-62 14.6 µM | HT-29 18.1 µM | LOX IMVI 19.2 µM | A498 17.4 µM | MCF7 21.9 µM | SK-MEL-5 21.3 µM | OVCAR-3 18.7 µM | HOP-62 23.7 µM | KM12 15.2 µM | NCI-H226 18.1 µM | SF-539 23.6 µM | SW-620 18.7 µM | NCI-H23 15.5 µM | SK-MEL-2 19.6 µM | OVCAR-5 19.3 µM | COLO 205 19.6 µM | UO-31 13.9 µM | T47D 12.6 µM | NCI/ADR-RES 14.7 µM
